From patent US6984719B1, “Peptide antagonists of prostaglandin F2α receptor” (Hospital Sainte-Justine, priority 1998, dated 2006)
Ends that are not written are not given here.

Assays:
[1] = molecular target: T1, human FP receptor (Homo sapiens, UniProt P43088); assay: PGF2α-induced phosphoinositide hydrolysis (inositol phosphate synthesis) in HEK293 cells expressing FP receptor; format: cell-based; conditions: 1 μM PGF2α
T1 construct: expressed in transfected cells
Method: Both PCP-8 and -10 were tested in HEK293 cells expressing the human FP receptor. For this purpose, HEK 293 cells stably expressing human FP receptor were plated in 12-well plates in DMEM medium containing 10% fetal bovine serum, penicillin (10 U/ml) and streptomycin (10 μg/ml) and cultured in a humidified atmosphere containing 5% CO2 at 37° C. After the wells were 80% confluent, the cells were labeled with 2 μCi/ml of [^3H]-myo inositol overnight. Next day, the cells were washed once with PBS, and incubated in 0.5 ml of Kreb's buffer containing 10 mM LiCl and indicated concentrations of PCP peptides for 30 min. PGF2α at 1 μM was added to the cells and the incubation was carried out for an additional 30 min. The cells were solubilized with 0.1 N NaOH for 10 min and neutralized with 0.1 N formic acid. The lysates were collected and 1 ml each of methanol and chloroform were sequentially added and vortexed briefly. After centrifugation to separate the phases, inositol phosphates were separated by ion exchange chromatography as described below (Berridge, M. J. et al., 1983, Biochem. J. 212:473–482).
Briefly, the medium was discarded and the IP3 synthesis was stopped by adding 0.6 ml ice-cold methanol. The cells were scraped and collected into polypropylene tubes. Distilled water (0.5 ml) and chloroform (0.6 ml) were added and vigorously vortexed for 2 min. The phases were separated by centrifugation at 6000×g for 10 min. The aqueous phase was applied to AG-1X-8™ (Formate form) anion exchange columns (1 ml bed volume) and free inositol was eluted with 10 ml of water, followed by 60 mM ammonium formate in 0.1 M formic acid. Then, the inositol phosphates were eluted with 5 ml of 1.2 M ammonium formate in 0.1 M formic acid. After adding 3 volumes of scintillation cocktail (Optiphase-HiSafe III), the eluates were counted by scintillation spectrophotometry.
Data are expressed as fold stimulation of inositol phosphate synthesis by 1 μM PGF2α compared to the unstimulated controls. […] The half maximal inhibitory concentrations for both PCP-8 and -10 were slightly less than 100 μM.

[2] = test system: FP receptor; assay: Porcine uterine strip ex vivo contraction assay (basal and PGF2α-induced); parameters: species or system pig; conditions: 100 μM peptide
Method: In ex vivo experiments using porcine uterine strips, the peptides were able to prevent both basal and PGF2α-induced contraction.
Uterine tissues from non-pregnant adult pigs were obtained from a local slaughter house and transported to the laboratory on ice. Uterine myometrial strips of approximately 1 cm in length were set up in organ baths containing Kreb's buffer equilibrated with 21% oxygen at 37° C. as we have described (Potvin, W. et al., 1990, Br. J. Pharmacol. 100:341–347; Varma, D. R. and Chemtob, S., 1993, J. Pharmacol. Expt. Ther. 265:1096–1104). Contractions were recorded by force transducers on Grass-polygraph. Strips were incubated with or without 100 μM peptides for 30 min before adding PGF2α in step-wise increments (10^−9 to 10^−6 M). Data were expressed as percentage increase over the basal level of average tension (g).
A graph of spontaneous uterine contractions (known to be dependent upon prostanoids, mainly PGF2α) in the absence and the presence of 100 μM PCP-8 are shown in FIG. 3A.

[3] = molecular target: T2, FP receptor (Sus scrofa, UniProt C6GAG8); assay: Porcine eyecup model of ex vivo vasomotricity assay, PGF2α-induced constriction of retinal microvessels; parameters: species or system pig
T2 construct: from tissue; host or cells: eyecup / retinal microvessels of newborn pigs pretreated with ibuprofen
T2 sequence (C6GAG8 1-362): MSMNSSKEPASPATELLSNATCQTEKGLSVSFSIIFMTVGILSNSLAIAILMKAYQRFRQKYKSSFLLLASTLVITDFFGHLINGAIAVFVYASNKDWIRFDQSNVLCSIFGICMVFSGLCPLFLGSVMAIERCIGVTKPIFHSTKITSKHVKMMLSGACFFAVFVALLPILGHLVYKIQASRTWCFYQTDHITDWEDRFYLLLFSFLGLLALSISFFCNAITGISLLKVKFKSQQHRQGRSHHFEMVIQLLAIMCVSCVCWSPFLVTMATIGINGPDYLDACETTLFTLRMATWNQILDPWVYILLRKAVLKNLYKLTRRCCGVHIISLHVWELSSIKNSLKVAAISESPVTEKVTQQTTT
Source text: In order to see if the peptides could inhibit FP function using an ex vivo model, we chose porcine eyecup model, an ex vivo assay of vascular constriction in porcine retinas which we previously described and validated (Li et al., 1996 J. Pharmacol. Expt. Therapeut. 278: 370–377; Li et al., 1997 Am. J. Physiol. 273: R1283–90; Abran et al., 1997 Am. J. Physiol. 272: R995–1001). Since FP receptor densities in newborn vasculature are minimal due to down regulation by high levels of circulating prostaglandins in the perinatal period, the newborn pigs were treated with a prostaglandin synthetase blocker, ibuprofen (30 mg/Kg of bodyweight/8 h for 24 h) to increase the density of the receptors as well as their vasomotor effects. By inhibiting circulating prostaglandins, we were able to show potent inhibition of FP receptor-mediated second messenger synthesis as well as FP-mediated vascular constriction in this eyecup model.
(§1) To prepare eyecups, a circular incision was made 3–4 mm posterior to ora serrata to remove the […] segment and vitreous body with minimal handling of the retina. The remaining eyecup was fixed with pins to a wax base in a 20 ml tissue bath containing 20 ml of Kreb's buffer (pH 7.35–7.45), protease inhibitors, leupetin and aprotinin (10 μg/ml each), and equilibrated with 21% oxygen and 5% carbon dioxide at 37° C. The preparations were allowed to stabilize for 30 min. Peptides at 100 μM were added and incubation was continued for 30 min before the addition of PGF2α.
(§2) Cumulative concentration-responses of PGF2α, and TxA2 mimetic, U46619, (10^−10 to 10^−5 M) curves were constructed separately. To assess the reversibility of the antagonists, the eyecups were thoroughly washed (which would wash away the peptide) with incubation medium and concentration response curves for PGF2α were determined. The outer vessel diameter was recorded with a video camera mounted on a dissecting microscope (Zeiss M 400™) and the responses were quantified by a digital image analyzer (Sigma Scan Software, Jandel Scientific, Corte Madera, Calif.). Vascular diameter was recorded before and 10 min following the topical application of the agent.
^1Percent vasomotor response in the presence of 100 μM peptide is calculated as percent change in average vascular diameter produced by 10^−7 M PGF2α to the eyecup in the presence of the peptide compared to maximal constriction observed in the absence of the peptide.
^2Percent inhibition produced by each peptide is calculated as (100-percent vasomotor response).
Small letters indicate L-amino acids and capital letters indicate D-amino acids. I=isoleucine; L=leucine; G=glycine; H=histidine; R=Arginine; D=Aspartic acid; Y=Tyrosine; K=Lysine; A=Alanine; W=Tryptophan; E=Glutamic acid; F=Phenyl alanine; Q=Glutamine; N=Aspargine; P=Proline; S=Serine; X=Cyclohexyl alanine. Peptides were dissolved in DMSO freshly just before the experiment as 10 mM stocks and added to the eye cups 30 min before the addition of 10^−7 M PGF2α.
These peptides incorporate L- to D-amino acid changes, deletions, subtle variations in aromaticity, hydrogen bond donor status as opposed to ionic interactions and hydrophobicity.

[4] = test system: TP receptor; assay: Porcine eyecup model of ex vivo vasomotricity assay, constriction by TxA2 mimetic U46619; parameters: species or system pig; conditions: peptide 100 μM; 1 μM U46619 / dose response
Method: as §1, §2
The peptide PCP-10 had no effect on the basal tone (diameter of the microvessel) of the vessel (FIG. 2A; left panels). […]

T1 sequence (P43088 whole entry): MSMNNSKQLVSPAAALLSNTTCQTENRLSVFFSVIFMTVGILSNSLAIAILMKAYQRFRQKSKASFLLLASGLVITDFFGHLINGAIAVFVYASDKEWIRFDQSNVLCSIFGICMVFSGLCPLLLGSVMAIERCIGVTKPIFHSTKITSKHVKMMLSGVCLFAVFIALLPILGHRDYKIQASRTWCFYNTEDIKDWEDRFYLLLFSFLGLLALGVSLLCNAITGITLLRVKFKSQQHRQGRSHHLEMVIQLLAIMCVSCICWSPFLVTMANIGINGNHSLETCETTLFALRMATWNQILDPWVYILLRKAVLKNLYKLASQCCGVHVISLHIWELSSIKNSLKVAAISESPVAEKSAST

IC50 ([1]; HEK293 cells stably expressing human FP receptor, read-out: half maximal inhibitory concentration, inositol phosphate synthesis): < 100 µM | inhibition of inositol phosphate synthesis initiated by PGF2α ([1]; peptide at 100 μM): potently inhibited | reduction in uterine contraction ([2]; all concentrations of PGF2α tested (10^−9 to 10^−6 M)): More than 60% | effect on spontaneous (basal) uterine contraction ([2]; porcine uterine strips): reduced the force of basal contraction | Emax ([3]; 100 μM peptide, 10^−7 M PGF2α, calculated as 100-percent vasomotor response, read-out: % inhibition of maximal response): 50% | effect on vasomotor responses in PGF2α dose response ([3]; peptide 100 μM, even at concentrations exceeding 1 μM of PGF2α): abrogated the vasomotor responses | effect on vasoconstriction by TxA2 mimetic U46619 [4]: no effect
Substance: ILGHRDYK-OH [PCP-8, ilghrdyk]
